Source: patent publication US12414983B2, “CD200AR ligands for cancer immunotherapy” (REGENTS OF THE UNIVERSITY OF MINNESOTA, priority 2019, dated 2025)

B1: CD200: CD200 immune checkpoint protein used to pulse splenocytes (protein, UniProt O54901 31-278, looked up)
OX-2 membrane glycoprotein: QVEVVTQDERKALHTTASLRCSLKTSQEPLIVTWQKKKAVSPENMVTYSKTHGVVIQPAYKDRINVTELGLWNSSITFWNTTLEDEGCYMCLFNTFGSQKVSGTACLTLYVQPIVHLHYNYFEDHLNITCSATARPAPAISWKGTGTGIENSTESHFHSNGTTSVTSILRVKDPKTQVGKEVICQVLYLGNVIDYKQSLDKGFWFSVPLLLSIVSLVILLVLISILLYWKRHRNQERGESSQGMQRMK

Legend:
Human CD14+ cells = experiment: Cytokine measurements in CD14+ cells pulsed with CD200AR-L peptide; type: cell-based; settings: for secretion of inflammatory cytokines from CD14+ cells: selection among 61 alanine-substituted peptides; for IL-1β in supernatant / TNFα in supernatant: CD14+ cells pulsed with peptide, 48 h, compared with non-pulsed controls
Procedure: Cytokine measurements. Human CD14^+ cells (5×10^5) were isolated from peripheral blood mononuclear cells (PBMCs) using anti-CD14 beads (BD Biosciences, San Jose, CA), typically yielding ≥70% recovery and ≥90% purity. Cells were pulsed with 2 μM CD200AR-L peptide and incubated for 48 h, after which the supernatants were analyzed by bead array for cytokine production (BD Biosciences, San Jose, CA).

[1] = tested on: immature dendritic cells (iDCs) and autologous T-cells; experiment: CMV assay: iDCs pulsed with pp65 +/- peptide, then co-incubated with T-cells; type: cell-based, human; settings: for antigen-specific response, production of IFNγ: pp65+CD200AR-L peptide compared with pp65 alone
Procedure: Dendritic cell differentiation. Cytomegalovirus (CMV)-positive HLA-A2^+ lymphocyte packs were obtained from the American Red Cross, and CD14^+ cells were purified. Approximately 1×10^8 CD14^+ cells were cultured in polystyrene tissue-culture flasks at 37° C. in 5% CO2. GM-CSF (25 ng/mL) and IL-4 (40 ng/mL) were both added on days 3 and 5 to derive immature dendritic cells (iDCs).
CMV assay. iDCs (5×10^5) were pulsed with 10 μg of CMV antigen peptide pp65495-503 (NLVPMVATV) and cultured as described above. The iDCs were then washed three times, and 5×10^5 CD8^+ T-cells from CMV-positive donors were co-incubated with the pulsed iDCs. CMV-negative PBMCs were used as a negative control. Supernatants were collected after 48 h of incubation and analyzed for IFNγ production by cytometric bead array (BD Biosciences).
To assess the effects of P1A8, P2A0, and P4A10 on the antigen-specific response, we measured IFNγ release in the following assay. iDCs were pulsed with the CMV antigen pp65 with and without an equimolar amount of P1A8, P2A0, or P4A10. Autologous T-cells were then added and incubated with the iDCs for 48 h, after which IFNγ production was measured in the supernatants. Exposure to pp65 increased T-cell IFNγ production approximately 4-fold (FIG. 4c). Co-treatment of iDCs with pp65 and P1A8, P2A0, or P4A10 increased IFNγ release by an additional 2- to 3-fold over pp65 alone.

Splenocytes = Splenocytes pulsed with CD200 or PD-L1 +/- mCD200AR-L, flow cytometry for CTLA4 and PD-L1; type: cell-based; settings: splenocytes pulsed with CD200 or PD-L1
Procedure: FIGS. 14A-14C. […] Splenocytes were pulsed with CD200, PD-L1+/−mCD200AR-L. Cells were analyzed by flow cytometry for the (FIG. 14A) CD4^+CTLA4^+, (FIG. 14B) CD8^+CTLA4^+or (FIG. 14C) CD11b^+PD-L1^+ populations. Error bars are representative of n=2 *P<0.005, **P<0.0001.
We propose that soluble CD200 and PD-L1 inhibit T cell activation through multiple checkpoints (FIG. 10). Therefore, the effect of multiple suppressive molecules (CD200 and PD-L1) on T cell inhibition was investigated. […] In addition, following PD-L1 treatment, an upregulation of PD-L1 on CD11b and an upregulation of CTLA4 was observed on T cells. Being CTLA4 and PD-L1 propagate separate inhibitory signals, it was hypothesized that PD-L1 inhibits T cell activation through 1) direct CD200 and PD-L1 on T cells and 2) direct PD-L1 (on APCs)/PD-I (on […]) producing cytokines upregulating CTLA4, which would explain the enhanced responses seen in combination α-PD-1 and α-CTLA4 treatments. However, neither of them inhibit CD200 effect on T cells.
We next looked at the effects of CD200AR-L on T cell inhibition. […] Being CTLA4 and PD-L1 propagate separate inhibitory signals, we hypothesize that PD-L1 inhibits T cell activation through two separate mechanisms, 1) through direct PD-L1 (on APCs)/PD-I (on T cells) interactions and through cytokine production following PD-L1 binding to the PD-1 on CD11b cell, which would explain the enhanced responses seen in combination α-PD-1 and α-CTLA4 treatments.

Molecule	IL-1β in supernatant (Human CD14+ cells)	TNFα in supernatant (Human CD14+ cells)	antigen-specific response, production of IFNγ [1]	further results
NITLADEGCYMCLFN (Ac-NITLADEGCYMCLFN-NH2; cysteine pairing not given here; listed as Homo sapiens) [P2A5]				secretion of inflammatory cytokines from CD14+ cells (Human CD14+ cells): maximally stimulated
NLVPMVATV [pp65, CMV antigen peptide pp65495-503, reference compound]				increase of T-cell IFNγ production ([1]; exposure to pp65 alone, FIG. 4c): approximately 4 fold
VTFSENHGVVIAPAY (Ac-VTFSENHGVVIAPAY-NH2; listed as Homo sapiens) [P3A12]				secretion of inflammatory cytokines from CD14+ cells (Human CD14+ cells): maximally stimulated
CLFNTFGFGKISGTA (Ac-CLFNTFGFGKISGTA-NH2; listed as Homo sapiens) [P4]	statistically significant increases	statistically significant increases	significant antigen-specific response	
VTFSENHGVVIQPAY (Ac-VTFSENHGVVIQPAY-NH2; listed as Homo sapiens) [P3]	statistically significant increases	statistically significant increases	significant antigen-specific response	
IVTWQKKKAVSPENM (Ac-IVTWQKKKAVSPENM-NH2; listed as Homo sapiens) [P1]	statistically significant increases	statistically significant increases	significant antigen-specific response	
NITLEDEGCYMCLFN (Ac-NITLEDEGCYMCLFN-NH2; cysteine pairing not given here; listed as Homo sapiens) [P2]	statistically significant increases	statistically significant increases	significant antigen-specific response	
B1				CTLA4 on CD4 cells (Splenocytes): upregulation; CTLA4 on CD8 cells (Splenocytes): not on CD8 cells
